Values belong to the compound of their own block, whether it stands above or below them.
Columns and labels:
[1] = Artificial membrane permeability assay (PAMPA) (Example 36); format: in vitro ADME
[2] = Stability in human plasma (Example 5); format: in vitro ADME
Description: (§1) This example illustrates a method for assessing the stability of SDC-TRAP of the invention in human and mouse plasma.
(§2) SDC-TRAP-0022 and SDC-TRAP-0028 were incubated in human and mouse plasma for 2 h at 37° C. and assayed for integrity at 0.25, 0.5, 1 and 2 h. The values reported below are the remaining of the parent compound at the end of the 2 h incubation period.

[3] = Stability in mouse plasma (Example 5); format: in vitro ADME
Description: as §1, §2

HER2 [4] = assay: HER2 degradation in BT-474 cells (Example 3, Western blot / in-cell imaging); format: cell-based, human; conditions: Homo sapiens
HER2 [5] = assay: HER2 degradation assay with BT-474 cell line (Example 12, FACS); format: cell-based; conditions: Homo sapiens
[6] = system: MCF-7 breast cancer cells; assay: Mouse xenograft efficacy in an MCF-7 breast cancer model; format: in vivo; conditions: 150 or 100 mg/kg/1×wk; FIG. 8
Description: Mouse Xenograft Efficacy Data in an MCF-7 Breast Cancer Model
MCF-7 breast cancer cells were purchased from ATCC. […] Fetal bovine serum was then added to the medium. The final concentration of fetal bovine serum was 10%. Cells were cultured at 37° C. and 5% CO2.
Mice that were not put on treatment were euthanized. Animals were sourced through CRL (Wilmington, Mass.).

[7] = mouse, in vivo
in vivo = conditions: mouse
[8] = Mouse plasma stability (Examples 16-18); format: in vitro ADME
[9] = Stability in cell culture media (Example 18); format: in vitro ADME
Description: SDC-TRAP Stability in Mouse Plasma and Cell Culture Media
Mouse plasma samples were prepared according to Example 16.

[10] = system: human breast cancer cell line BT-474; assay: Cytotoxicity assay with cancer cell lines, BT-474 (Example 13); format: cell-based; conditions: BT-474, 72 h, read-out: Cytotoxicity (IC50, nM) BT-474
[11] = system: human urinary bladder cancer cell line RT-112; assay: Cytotoxicity assay with cancer cell lines, RT-112 (Example 13); format: cell-based; conditions: RT-112, 72 h, read-out: Cytotoxicity (IC50, nM) RT-112
[12] = system: human urinary bladder cancer cell line SW780; assay: Cytotoxicity assay with cancer cell lines, SW780 (Example 13); format: cell-based; conditions: SW780, 72 h, read-out: Cytotoxicity (IC50, nM) SW-780
[13] = Tissue distribution of ganetespib in female CD-1 nu/nu mice bearing RERF human NSCLC xenografts; format: in vivo, mouse; conditions: 24 hr after 50 mg/kg IV
Excerpt: Tissue distribution of ganetespib in female CD-1 nu/nu mice bearing RERF human NSCLC xenografts
To confirm the distribution of ganetespib in blood, livers, kidneys, brains, hearts, lungs and tumors after IV administration of ganetespib to female CD-1 nu/nu mice bearing RERF human NSCLC xenografts, and to examine metabolic profiles of ganetespib in plasma, red blood cells, and above tissues.
Animals: female CD-1 nu/nu mice bearing RERF human NSCLC xenografts (N=3/group)
Formulation: 10% DMSO, 18% Cremophor RH40, 3.6% dextrose solution (DRD)
Bleeding time points: 5 min, 6, 24 hr
Collected tissues: blood (plasma and red blood cells (RBC)), liver, kidneys, brain, heart, lung, tumor
Protein precipitation: 50 μL of 10 times diluted plasma or RBC+150 μL ACN (10 mM NH4OAc), vortexed and centrifuged at 10000 rpm for 8 min; 150 μL supernatant+150 μL water (10 mM NH4OAc)
Protein precipitation: 100 μL homogenized tissue (1:3 tissue: PBS buffer)+100 μL ACN (10 mM NH4OAc), vortexed and centrifuged at 10000 rpm for 8 min Bioanalysis

[14] = BT-474 cells, read-out: HER2 (IC50)
[15] = BT-474, SDC-TRAPs of the 43rd table

Compound: CCc1c2c(nc3ccc(OC(=O)N(C)CCn4ccc5cc(-n6c(O)nnc6-c6cc(C(C)C)c(O)cc6O)ccc54)cc13)-c1cc3c(c(=O)n1C2)COC(=O)C3(O)CC (stereo not shown) [SDC-TRAP-0022, 4,11-diethyl-4-hydroxy-3,14-dioxo-3,4,12,14-tetrahydro-1H-pyrano[3′,4′:6,7]indolizino[1,2-b]quinolin-9-yl (2-(5-(3-(2,4-dihydroxy-5-isopropylphenyl)-5-hydroxy-4H-1,2,4-triazol-4-yl)-1H-indol-1-yl)ethyl)(methyl)carbamate]
% Remaining 2 h (37° C.) HU ([2]; human plasma, 1 μM): 29%
% Remaining 2 h (37° C.) HU ([2]; human plasma, 10 μM): 30%
% Remaining 2 h (37° C.) MO ([3]; mouse plasma, 1 μM): 32%
% Remaining 2 h (37° C.) MO ([3]; mouse plasma, 10 μM): 31%

Compound: CCc1c2c(nc3ccc(OCC(=O)N(C)CCn4ccc5cc(-n6c(O)nnc6-c6cc(C(C)C)c(O)cc6O)ccc54)cc13)-c1cc3c(c(=O)n1C2)COC(=O)C3(O)CC (stereo not shown) [SDC-TRAP-0027, 2-((4,11-diethyl-4-hydroxy-3,14-dioxo-3,4,12,14-tetrahydro-1H-pyrano[3′,4′:6,7]indolizino[1,2-b]quinolin-9-yl)oxy)-N-(2-(5-(3-(2,4-dihydroxy-5-isopropylphenyl)-5-hydroxy-4H-1,2,4-triazol-4-yl)-1H-indol-1-yl)ethyl)-N-methylacetamide]
IC50 (HER2 [4]; [14]): > 5 µM
IC50 (HER2 [5]; [15]): > 5 µM

Compound: CCc1c2c(nc3ccc(OCC(=O)N(C)CCOCCn4ccc5cc(-n6c(O)nnc6-c6cc(C(C)C)c(O)cc6O)ccc54)cc13)-c1cc3c(c(=O)n1C2)COC(=O)C3(O)CC (stereo not shown) [SDC-TRAP-0028, 2-((4,11-diethyl-4-hydroxy-3,14-dioxo-3,4,12,14-tetrahydro-1H-pyrano[3′,4′:6,7]indolizino[12-b]quinolin-9-yl)oxy)-N-(2-(2-(5-(3-(2,4-dihydroxy-5-isopropylphenyl)-5-hydroxy-4H-1,2,4-triazol-4-yl)-1H-indol-1-yl)ethoxy)ethyl)-N-methylacetamide]
IC50 (HER2 [4]; [14]): > 5 µM
IC50 (HER2 [5]; [15]): > 5 µM
% Remaining 2 h (37° C.) HU ([2]; human, plasma, 2 h, 1 μM): 51%
% Remaining 2 h (37° C.) HU ([2]; human, plasma, 2 h, 10 μM): 65%
% Remaining 2 h (37° C.) MO ([3]; mouse, plasma, 2 h, 1 μM): 53%
% Remaining 2 h (37° C.) MO ([3]; mouse, plasma, 2 h, 10 μM): 47%

Compound: CCc1c2c(cc3ccc(O)cc13)-c1cc3c(c(=O)n1C2)COC(=O)[C@]3(O)CC [SN-38]
Mouse (10 μM) % Remaining 1 h (37° C.)* [8]: 64%
Media (5 μM) % Remaining 1 h (37° C.)* ([9]; 1 h): 82%
Media (5 μM) % Remaining 19 h (37° C.) ([9]; 19 h): 52%
IC50 [10]: > 10000 nM
IC50 [11]: < 10 nM
IC50 [12]: 38 nM
Mass Retention ([1]; incubation 5 h, the 55th table): 38.2%
Papp at 5 h ([1]; incubation 5 h, the 55th table): 0.643 ×10⁻⁶ cm/s
Mass Retention ([1]; same protocol, the 56th table): 46.6%
Papp at 5 h ([1]; same protocol, the 56th table): 1.87 ×10⁻⁶ cm/s
Kp at 1 h (in vivo; Tumor/Plasma Ratio): 0.07
Kp at […] (in vivo; Tumor/Plasma Ratio): 0.01

Compound: CC(C)c1cc(-c2n[nH]c(=O)n2-c2ccc3c(ccn3C)c2)c(O)cc1O [ganetespib, reference compound]
Concentration of ganetespib in plasma [13]: <LLOQ
IC50 (HER2 [4]; BT-474, read-out: IC50 of in vitro HER2 assays): ~0.03 µM

The next lines start with results.

Papp at 5 h ([1]; incubation 5 h, the 55th table): 0.021 ×10⁻⁶ cm/s
Compound: CC(C)c1cc(-c2nnc(O)n2-c2ccc3c(ccn3CCNC(=O)CCCC[C@@H]3SCC4NC(=O)NC43)c2)c(O)cc1O (stereo in doubt) [SDC-TRAP-0233, N-(2-(5-(3-(2,4-dihydroxy-5-isopropylphenyl)-5-hydroxy-4H-1,2,4-triazol-4-yl)-1H-indol-1-yl)ethyl)-5-((3 aS,4S,6aR)-2-oxohexahydro-1H-thieno[3,4-d]imidazol-4-yl)pentanamide]

IC50 (HER2 [4]; [14]): > 5 µM
IC50 (HER2 [5]; BT-474 cells): > 5 µM
Compound: CC(C)c1cc(-c2nnc(O)n2-c2ccc3c(ccn3CCOCCN(C)C(=O)CCC(=O)Nc3cccc4c3CN(C3CCC(=O)NC3=O)C4=O)c2)c(O)cc1O (stereo not shown) [SDC-TRAP-0033, N1-(2-(2-(5-(3-(2,4-dihydroxy-5-isopropylphenyl)-5-hydroxy-4H-1,2,4-triazol-4-yl)-1H-indol-1-yl)ethoxy)ethyl)-N4-(2-(2,6-dioxopiperidin-3-yl)-1-oxoisoindolin-4-yl)-N1-methylsuccinamide]

IC50 (HER2 [4]; [14]): > 5 µM
IC50 (HER2 [5]; BT-474 cells): > 10 µM
Compound: CC(C)c1cc(-c2nnc(O)n2-c2ccc(CN3CCN(C(=O)CCCC(=O)Nc4cccc5c4CN(C4CCC(=O)NC4=O)C5=O)CC3)cc2)c(O)cc1O (stereo not shown) [SDC-TRAP-0041, 5-(4-(4-(3-(2,4-dihydroxy-5-isopropylphenyl)-5-hydroxy-4H-1,2,4-triazol-4-yl)benzyl)piperazin-1-yl)-N-(2-(2,6-dioxopiperidin-3-yl)-1-oxoisoindolin-4-yl)-5-oxopentanamide]

concentration at 6 h (in vivo; Plasma Conc.): 1690 nM
concentration at 24 h (in vivo; Plasma Conc.): 6.75 nM
Kp at 6 h (in vivo; Tumor/Plasma Ratio): 0.958
Kp at 24 h (in vivo; Tumor/Plasma Ratio): 30.1
Kp at […] (in vivo; Tumor/Plasma Ratio): 0.0122
Compound: CCc1c2c(nc3ccc(OC(=O)N4CCC(CCn5ccc6cc(-n7c(O)nnc7-c7cc(C(C)C)c(O)cc7O)ccc65)CC4)cc13)-c1cc3c(c(=O)n1C2)COC(=O)[C@]3(O)CC [SDC-TRAP-0063, 4,11-diethyl-4-hydroxy-3,14-dioxo-3,4,12,14-tetrahydro-1H-pyrano[3′,4′:6,7]indolizino[1,2-b]quinolin-9-yl 4-(2-(5-(3-(2,4-dihydroxy-5-isopropylphenyl)-5-hydroxy-4H-1,2,4-triazol-4-yl)-1H-indol-1-yl)ethyl)piperidine-1-carboxylate]
tumor growth suppression (tumor volume) [6]: greater tumor growth suppression than effector moiety irinotecan alone
tumor targeting (tissue distribution, in words) [7]: selectively targets and accumulates in tumor cells

Mass Retention ([1]; incubation 5 h, the 55th table): 9.56%
Papp at 5 h ([1]; incubation 5 h, the 55th table): 0.0123 ×10⁻⁶ cm/s
Compound: CC(C)c1cc(-c2nnc(O)n2-c2ccc3c(ccn3CCNC(=O)CCCCCNC(=O)CCCC[C@H]3SC[C@H]4NC(=O)N[C@H]43)c2)c(O)cc1O [SDC-TRAP-0234, N-(2-(5-(3-(2,4-dihydroxy-5-isopropylphenyl)-5-hydroxy-4H-1,2,4-triazol-4-yl)-1H-indol-1-yl)ethyl)-6-(5-((3aR,4R,6aS)-2-oxohexahydro-1H-thieno[3,4-d]imidazol-4-yl)pentanamido)hexanamide]
